Measured values from patent US10864200B2, “Stable formulations for immune-modulatory macrolides” (Roche Diagnostics Operations, Inc., priority 2017, dated 2020).
Where “and” joins values, the source holds several entries; their conditions need not be identical. Equal entries are not always repeated. Where two headings read alike, the source gives them in different places.

Columns and labels:
[1] = Real-time stability (RTS) of everolimus in chlorhexidine-containing cell-free blood hemolysate, LC-MS/MS; format: physicochemical; conditions: for everolimus concentration: hemolysate with 0.024% chlorhexidine
Procedure: (§1) A formulation was prepared by firstly hemolyzing human whole blood: Human EDTA whole blood of 5 donors was hemolyzed by a freeze-and-thaw cycle. After freezing the whole blood sample from each donor separately at −80° C. and thawing at room temperature, all samples were combined, mixed on a roller for at least 1 hour and then centrifuged for 15 minutes at 22° C. and 12000 g in order to remove fragments of hemolyzed blood cells potentially present. After the centrifugation, the upper section (approximately ⅘ of the whole volume) of the hemolyzed blood was used as hemolysate. Finally, chlorhexidine was added to the hemolysate to a concentration of 0.024%.
(§2) For checking the RTS, the chlorhexidine-containing hemolysate was spiked from a highly concentrated stock solution of everolimus to approx. 100 ng/ml, and aliquots thereof were stressed at 6° C. for 3, 6, 9, 12, and 15 months respectively in brown LC-MS vials. The stressed samples and the corresponding non-stressed samples (T0 samples) were analyzed by LC-MS/MS measurements.
LC-MS/MS method: Before performing the LC-MS/MS analysis, the samples were treated by addition of 10 μL isotope-labeled internal standards (d4/2×C13—everolimus) to 100 μL of the sample to be analyzed, followed by a protein precipitation by addition of 150 μL acetonitrile. The mixture was incubated at 4° C. for 60 minutes and then centrifuged (18000 g, 4° C., 30 min). The supernatant was diluted 1:4 with a solvent mixture of 30% acetonitrile and 70% water and then injected in the LC-MS/MS. The samples were quantified by an external calibration curve. The calibrator was a set of solutions with different concentrations of analyte and they were run through the same preparation workflow, with the same internal standard as the samples. For the calculation of the concentration in a sample, the response factors (ratio of analyte peak area and internal standard peak area) of the sample were referenced with the linear function of the calibration curve (ratio by concentration). The recovery value was the concentration measured at time point (Ti) compared to the non-stressed concentration at start time point (T0) as reference (see Table 3). Formulations with recoveries >90% were classified as stable.
LC-MS/MS conditions were • Solvents: A: 0.5 mM NH4Acetate in H2O/B: Methanol • Gradient: according to Table 2. • AB Sciex 6500 QTRAP/Agilent HPLC 1290-Infinity • APCI source negative mode • Column: Phenomenex—Kinetex F5, 2.6 μm particle, 150 mm×2.1 mm • Temperature: 50° C. (Column) and 8° C. (Autosampler) • Injection volume 20 μL • Calibration: external, with 6 concentration levels covering 0-500 ng/mL • MRM Transition at DP: −76 V EP: −10 V CE: −30 V CXP: −24 V • Detection: everolimus: Q1: 956.6 Da Q3: 590.2 Da; everolimus d4,2×C13: Q1: 962.2 Da Q3: 590.2 Da.

[2] = known from literature; cited from earlier work
[3] = cited from earlier work
[4] = Real-time stability study of everolimus in hemolysate with NaN3 as additive; format: physicochemical; conditions: hemolysate with 0.009% sodium azide
[5] = Real-time stability (RTS) of sirolimus and tacrolimus in chlorhexidine-containing cell-free blood hemolysate, LC-MS/MS; format: physicochemical; conditions: for real-time stability demonstrated: 6° C., chlorhexidine-containing hemolysate formulation; for area-ratio (analyte / internal standard): hemolysate with 0.024% chlorhexidine
Procedure: as §1
as §2, with “sirolimus” for “everolimus”, “ng/mL or tacrolimus to approx. 135 ng/mL,” for “ng/ml,”, “3” for “3, 6, 9, 12, and 15”, “stored at 6° C. for a couple of days until their” for “analyzed by”, “analysis.” for “measurements.”
LC-MS/MS method: Before performing the LC-MS/MS analysis the samples were prepared by addition of 10 μL structurally similar internal standards (everolimus D4 2×C13 for sirolimus and non-labeled ascomycin for tacrolimus) to 100 μL of the sample to be analyzed, followed by a protein precipitation by addition of 150 μL acetonitrile. The mixture was incubated at 4° C. for 60 minutes and then centrifuged (18000 g, 4° C., 30 min). The supernatant was 1:4 diluted with a solvent mixture of 30% acetonitrile and 70% deionized water and then injected in the LC-MS/MS. The recovery value was the found area-ratio at time point (T1) compared to the non-stressed area-ratio at start time point (T0) as reference (see table 5). Formulations with recoveries >90% were classified as stable and with 80-90% as acceptable.
LC-MS/MS conditions were • Solvents: A: 5 mM NH4Acetate in H2O+0.1% Formic acid/ • B: Methanol+0.1% Formic acid • Gradient: according to Table 4. • AB Sciex Triple Quad 6500+/Agilent HPLC 1290-Infinity II • ESI source • Column: Phenomenex—Kinetex F5, 2.6 μm particle, 50 mm×2.1 mm • Temperature: 40° C. (Column) and 8° C. (Autosampler) • Injection volume 20 μL • MRM Transition at DP: 70 V EP: 10 V CXP: 12 V • Detection: everolimus: Q1: 975.7 Da Q3: 908.7 Da CE 25 V • everolimus d4,2×C13: Q1: 981.7 Da Q3: 914.7 Da CE 25 V • sirolimus: Q1: 931.7 Da Q3: 864.6 Da CE 25 V • tacrolimus: Q1: 821.5 Da Q3: 576.4 Da CE 33 V • ascomycin: Q1: 809.5 Da Q3: 564.4 Da CE 33 V

CO[C@H]1C[C@@H]2CC[C@@H](C)[C@@](O)(O2)C(=O)C(=O)N2CCCC[C@H]2C(=O)O[C@H]([C@H](C)C[C@@H]2CC[C@@H](OCCO)[C@H](OC)C2)CC(=O)[C@H](C)/C=C(\C)[C@@H](O)[C@@H](OC)C(=O)[C@H](C)C[C@H](C)/C=C/C=C/C=C/1C [everolimus, (1R,9S,12S,15R,16E,18R,19R,21R,23S,24E,26E,28E,30S,32S,35R)-1,18-dihydroxy-12-[(2R)-1-[(1S,3R,4R)-4-(2-hydroxyethoxy)-3-methoxycyclohexyl]propan-2-yl]-19,30-dimethoxy-15,17,21,23,29,35-hexamethyl-11,36-dioxa-4-azatricyclo hexatriaconta-16,24,26,28-tetraene-2,3,10,14,20-pentone]
everolimus concentration ([1]; 3 months at 6° C.): 71.1 ng/mL
everolimus concentration ([1]; 6 months at 6° C.): 81.8 ng/mL
real-time stability demonstrated ([1]; 6° C., chlorhexidine-containing hemolysate formulation): 15 months
everolimus concentration ([1]; 9 months at 6° C.): 74.6 ng/mL
everolimus concentration ([1]; 12 months at 6° C.): 92.0 ng/mL
everolimus concentration ([1]; 15 months at 6° C.): 77.8 ng/mL
everolimus concentration ([1]; T0 (non-stressed), spiked approx. 100 ng/ml): 74.8 ng/mL
aqueous solubility [2]: poor
Literature-provided stability of blood samples ([3]; 2-8° C., 4° C.): 7d/4 °C ^11
Literature-provided stability of blood samples ([3]; >RT, 30° C. (in light)): 7d/30 °C (in light) ^1
Literature-provided stability of blood samples ([3]; RT (in light)): 6h/RT (in light) ^4
measured value for stressed everolimus (unit not given) ([4]; 3 months at 6° C.): 0.732
measured value for stressed everolimus (unit not given) ([4]; T0): 0.781

CO[C@H]1C[C@@H]2CC[C@@H](C)[C@@](O)(O2)C(=O)C(=O)N2CCCC[C@H]2C(=O)O[C@H]([C@H](C)C[C@@H]2CC[C@@H](O)[C@H](OC)C2)CC(=O)[C@H](C)/C=C(\C)[C@@H](O)[C@@H](OC)C(=O)[C@H](C)C[C@H](C)/C=C/C=C/C=C/1C [sirolimus, (1R,9S,12S,15R,16E,18R,19R,21R,23S,24E,26E,28E,30S,32S,35R)-1,18-dihydroxy-12-{(2R)-1-[(1S,3R,4R)-4-hydroxy-3-methoxycyclohexyl]-2-propanyl}-19,30-dimethoxy-15,17,21,23,29,35-hexamethyl-11,36-dioxa-4-azatricyclo hexatriaconta-16,24,26,28-tetraene-2,3,10,14,20-pentone]
real-time stability demonstrated [5]: 3 months
aqueous solubility [2]: poor
Literature-provided stability of blood samples ([3]; 2-8° C., 4° C. (dark & in light)): 8d/4 °C
Literature-provided stability of blood samples ([3]; 2-8° C., 4° C.): 7d/4 °C ^11
Literature-provided stability of blood samples ([3]; <0° C., −20 to −80° C.): 1a/−20 to −80 °C ^3
Literature-provided stability of blood samples ([3]; <0° C., −20° C.): 3m/−20 °C ^1 and 6m/−20 °C ^11
Literature-provided stability of blood samples ([3]; >RT, 30° C. (dark & in light)): 8d/30 °C
Literature-provided stability of blood samples ([3]; >RT, 30° C. (in light)): 7d/30 °C (in light) ^1
Literature-provided stability of blood samples ([3]; RT): 1d/RT ^11 and 1d/RT ^3

C=CC[C@@H]1/C=C(\C)C[C@H](C)C[C@H](OC)[C@H]2O[C@@](O)(C(=O)C(=O)N3CCCC[C@H]3C(=O)O[C@H](/C(C)=C/[C@@H]3CC[C@@H](O)[C@H](OC)C3)[C@H](C)[C@@H](O)CC1=O)[C@H](C)C[C@@H]2OC [tacrolimus, (1R,9S,12S,13R,14S,17R,18E,21S,23S,24R,25S,27R)-1,14-dihydroxy-12-[(1E)-1-[(1R,3R,4R)-4-hydroxy-3-methoxycyclohexyl]prop-1-en-2-yl]-23,25-dimethoxy-13,19,21,27-tetramethyl-17-(prop-2-en-1-yl)-11,28-dioxa-4-azatricyclo octacos-18-ene-2,3,10,16-tetrone]
Recovery value (area-ratio at T1 compared to T0) ([5]; 3 months at 6° C.): 98%
area-ratio (analyte / internal standard) ([5]; 3 months at 6° C.): 0.972
real-time stability demonstrated [5]: 3 months
area-ratio (analyte / internal standard) ([5]; T0 (non-stressed), sirolimus approx. 100 ng/mL, tacrolimus approx. 135 ng/mL): 0.99
Recovery value (area-ratio at T1 compared to T0) ([5]; T0 (reference)): 100%
aqueous solubility [2]: poor
Literature-provided stability of blood samples (in words) ([3]; 1d/RT): not stable ^9
Literature-provided stability of blood samples ([3]; <0° C., −70° C.): 1a/−70 °C ^8
Literature-provided stability of blood samples ([3]; >RT, 37° C.): 3d/37 °C ^7
Literature-provided stability of blood samples ([3]; RT): 14d/RT ^8 and 7d/RT ^7
